Reference: patent US20130310625A1, “VELIPARIB IN COMBINATION WITH WHOLE BRAIN RADIATION THERAPY FOR THE TREATMENT OF BRAIN METASTASES” (AbbVie Inc., priority 2012, published 2013)
“Also recorded” adds a separate entry of the source. Blank lines part the entries; values can stand above or below the compound they belong to.

What was measured:
[1] = tested on: brain metastases; details: radio-sensitizer added to WBRT, randomized controlled studies; cited from earlier work
[2] = Phase 1 pharmacokinetics of veliparib administered concurrently with WBRT in patients with brain metastases; assay type: in vivo, human
Method: (§1) This example is a Phase 1, multicenter, dose-escalation study evaluating the safety, tolerability and pharmacokinetics of veliparib administered concurrently with conventional WBRT in subjects with solid primary tumors metastatic to the brain.
(§2) Patients received WBRT delivered in 2.5 Gy fractions once a day (QD) for a total of 15 fractions or WBRT delivered at 3.0 Gy fractions QD for a total of 10 fractions.
(§3) Veliparib dose-escalation began at 10 mg and increased to 20, 30, 50, 80, 100, 150, 200, and 300 mg twice a day (BID) through out the entire course of WBRT (Table 2); the final WBRT fraction was followed by 1 extra day of veliparib.
To determine PK of veliparib, intensive PK sampling was performed on Day 1 of the WBRT schedules (15 and 10 day) at the following time points: 0, 30, 1, 2, 6 and 24 hours. PK as was also performed on Day 6 for both WBRT schedules at the following time points: 0, 30 min, 1, 2, and 6 For the 15 Day schedule sampling was performed on Day 15 at 0, 30 min, 1, 2 and 6 hours. For the 10 day schedule only a 0 hour sample was collected. Post treatment samples were collected 24-72 hours after the last dose of veliparib for both WBRT schedules.

[3] = Phase 1 safety and tolerability of veliparib with WBRT (AEs by NCI CTCAE v3.0, DLTs); assay type: in vivo, human
Method: as §1, §2, §3
AEs were assessed by NCI CTCAE v3.0.

[4] = preclinical study; cited from earlier work
[5] = nonhuman primate model (Muscal et al. 2010); cited from earlier work
[6] = N = 66, possibly or probably related to veliparib

Structure (SMILES): O=C(O)c1nn(Cc2ccc(Cl)cc2Cl)c2ccccc12 [lonidamine]
- benefit in local brain tumor control or overall survival [1]: failing to benefit

- Increase in veliparib exposure (Cmax and AUC) with increase in veliparib dose ([2]; 10 to 150 mg BID dose range): approximately dose-proportional
- veliparib accumulation following BID dosing ([2]; Cmax and AUC on Day 1, Day 6 and Day 15): minimal
- effect of food on veliparib oral bioavailability ([2]; exposure Day 6 (fasting) vs Day 15 (non-fasting)): no significant effect of food
- Tmax ([2]; human, plasma, oral veliparib BID with WBRT, patients): 1 to 2 h
- oral clearance ([2]; mean±SD, n=45, 10 to 150 mg BID dose range): 21.6 ± 14.2 L/h
Structure (SMILES): C[C@]1(c2nc3c(C(N)=O)cccc3[nH]2)CCCN1 [Veliparib, 2-[(2R)-2-methylpyrrolidin-2-yl]-1H-benzimidazole-4-carboxamide]
- DLT ([3]; 150 mg veliparib BID, one patient each): grade 3 hypokalemia; also recorded: grade 3 hyponatraemia
- dose limiting toxicities (DLTs) ([3]; 10, 20, 30, 50, 80, 100, 200 and 300 mg dose levels): No dose limiting toxicities (DLTs) were observed
- Any Event, Any Grade, treatment-emergent AEs possibly or probably related to veliparib ([3]; N = 66): 37 (56) n (%)
- Any Event, Grade 3/4 AEs possibly or probably related to veliparib ([3]; N = 66): 10 (15) n (%)
- Decreased Appetite, Any Grade [3, 6]: 8 (12) n (%)
- Fatigue, Any Grade [3, 6]: 22 (33.3) n (%)
- Fatigue, Grade 3/4 [3, 6]: 3 (5) n (%)
- Nausea, Any Grade [3, 6]: 13 (19.7) n (%)
- Nausea, Grade 3/4 [3, 6]: 1 (2) n (%)
- Vomiting, Any Grade [3, 6]: 8 (12) n (%)
- patients with AEs leading to study drug discontinuation ([3]; all causes): 8 (12%) patients
- patients with AEs leading to study drug discontinuation possibly or probably related to veliparib ([3]; in vivo): 2 (3%) patients
- blood-brain barrier crossing and accumulation in brain tumor tissue [4]: shown to cross the blood-brain barrier and accumulate in brain tumor tissue
- level in CSF [5]: measured in CSF in a range that has been shown to inhibitor PARP activity in vivo in humans

Structure (SMILES): Cc1ncc([N+](=O)[O-])n1CCO [metronidazole]
- benefit in local brain tumor control or overall survival [1]: failing to benefit

Structure (SMILES): Cc1cc(C)cc(NC(=O)Cc2ccc(OC(C)(C)C(=O)O)cc2)c1 [efaproxiral]
- benefit in local brain tumor control or overall survival [1]: failing to benefit

Structure (SMILES): COCC(O)Cn1ccnc1[N+](=O)[O-] (stereo not shown) [misonidazole]
- benefit in local brain tumor control or overall survival [1]: failing to benefit

Structure (SMILES): CC(=O)[O-].CC(=O)[O-].CCc1c(CC)c2cc3nc(cnc4cc(OCCOCCOCCOC)c(OCCOCCOCCOC)cc4ncc4nc(cc1[n-]2)C(CCCO)=C4C)C(C)=C3CCCO.O.[Gd+3] [motexafin gadolinium]
- benefit in local brain tumor control or overall survival [1]: failing to benefit

Structure (SMILES): O=c1[nH]c(=O)n([C@H]2C[C@H](O)[C@@H](CO)O2)cc1Br [bromodeoxyuridine]
- benefit in local brain tumor control or overall survival [1]: failing to benefit
